Measurements: ChEMBL document CHEMBL1127653, “Synthesis and anticholinergic activity of the four stereoisomers of 4-(dimethylamino)-2-phenyl-2-(2-pyridyl)pentanamide” (J Med Chem, 1994)

organism: Cavia porcellus; experiment: Inhibitory effect on acetylcholine-Induced contraction of Guinea pig iIeum; type: functional; settings: not given

Question: For `CC(CC(C(N)=O)(c1ccccc1)c1ccccn1)N(C)C` (racemic; form 1) [VAMICAMIDE], which IC50 is on record?
Answer: Its IC50 is 1500 nM.

Question: For `CC(CC(C(N)=O)(c1ccccc1)c1ccccn1)N(C)C` (racemic; form 2) [VAMICAMIDE], which IC50 is on record?
Answer: The IC50 was 570 nM.

Question: `C[C@H](C[C@@](C(N)=O)(c1ccccc1)c1ccccn1)N(C)C` (stereo in doubt; 10 (2R,4R)) was tested. Which IC50 did it give?
Answer: Its IC50 is 400 nM.

Question: Which IC50 does the source give for `C[C@H](C[C@@](C(N)=O)(c1ccccc1)c1ccccn1)N(C)C` (stereo in doubt; 11 (2S,4S)) here?
Answer: Its IC50 is 31000 nM.

Question: How did the IC50 turn out when `C[C@H](C[C@@](C(N)=O)(c1ccccc1)c1ccccn1)N(C)C` (stereo in doubt; 12 (2R,4S)) was run?
Answer: Its IC50 is 170000 nM.

Question: How did the IC50 turn out when `C[C@H](C[C@@](C(N)=O)(c1ccccc1)c1ccccn1)N(C)C` (stereo in doubt; 13 (2S,4R)) was run?
Answer: The IC50 was 130 nM.

same assay, conditions: Cavia porcellus

Question: `CN(C)CCC(C(N)=O)(c1ccccc1)c1ccccn1` (configuration not stated) was tested. Which IC50 did it give?
Answer: Its IC50 is 8100 nM.
